US20250108100A1, “C-TERMINAL FRAGMENT OF APOLIPOPROTEIN E AND APPLICATION THEREOF IN INHIBITING y-SECRETASE ACTIVITY” (SYNPHATEC (SHANGHAI) BIOPHARMACEUTICAL TECHNOLOGY CO., LTD., priority 2022, published 2025)
Entries after “also recorded” stand apart in the source; their conditions may differ.

Tested on: primary cultured mouse hippocampal or cortical neurons
Experiment: Endogenous Aβ40 in primary cultured mouse cortical or hippocampal neurons (lentivirus, ELISA)
Type: cell-based
Conditions: primary cultured mouse neurons; lentivirus; vs GFP control
Experimental: Primary cultured neurons were derived from the cortex or hippocampus of 16-day embryonic mice. The mouse cortex or hippocampus was obtained under a stereoscope, and was digested at 37° C. for 10 minutes with 20 U/ml papain (Worthington Company). After digestion, the neurons that exist in single-cell form were seeded with 100,000 neurons per well (24-well plate); the neurons were cultured in the neuron culture medium (Neurobasal medium; ThermoFisher Company) containing 2% B27 (ThermoFisher Company) and 1% penicillin/streptomycin; the fresh culture medium was changed once a week.
The experiment was performed according to the standard procedure in the ELISA analysis kit of Invitrogen Company. • a) The target protein was expressed in HEK 293T cell line. Cells were subcultured one day before transfection, and transfection was performed when the degree of cell adhesion reached 70%-80%. […]
48 hours after transfection of HEK 293T cells and N2A cells, or 4.5 days after lentivirus infection of neurons, media and lysates were collected. Aβ40 and Aβ42 in the culture medium and cell lysates were detected by an Aβ ELISA kit as indicated in the protocol. […]

Substance: ApoE2: human apolipoprotein E2, full-length 299 amino acid residues, SEQ ID NO: 12
- endogenously produced Aβ40: can reduce endogenously produced Aβ40; also recorded: could reduce the endogenous Aβ40
